In data set [1] the target is T1, Retinoic acid receptor alpha (Homo sapiens) (UniProt P10276).
T1 sequence (whole entry): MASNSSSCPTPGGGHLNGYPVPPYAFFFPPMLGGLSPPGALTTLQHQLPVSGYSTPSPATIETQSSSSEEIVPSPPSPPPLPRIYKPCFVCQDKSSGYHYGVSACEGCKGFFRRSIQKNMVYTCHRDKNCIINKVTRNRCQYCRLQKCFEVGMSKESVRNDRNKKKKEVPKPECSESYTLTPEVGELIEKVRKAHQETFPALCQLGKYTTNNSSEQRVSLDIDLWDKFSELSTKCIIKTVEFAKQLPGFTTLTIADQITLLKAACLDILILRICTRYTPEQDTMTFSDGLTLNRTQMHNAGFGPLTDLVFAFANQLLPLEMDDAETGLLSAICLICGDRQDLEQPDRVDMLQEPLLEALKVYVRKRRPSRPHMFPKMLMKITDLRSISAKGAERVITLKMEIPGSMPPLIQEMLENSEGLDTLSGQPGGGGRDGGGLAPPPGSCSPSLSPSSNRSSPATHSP
Description: Antagonist activity at recombinant human pFA-CMV fused RARalpha LBD transfected in HEK293T cells assessed as reduction in tretinoin-induced RARalpha activation at 1 uM incubated for 12 to 14 hrs by dual glo luciferase reporter gene assay. The class given is cell-based.

The target in data set [2] is Oxysterols receptor LXR-alpha (Homo sapiens) (UniProt Q13133). Description: Agonist activity at recombinant human pFA-CMV fused LXRalpha LBD transfected in HEK293T cells assessed as LXRalpha activation at 1 uM incubated for 12 to 14 hrs by dual glo luciferase reporter gene assay.
Sequence of Oxysterols receptor LXR-alpha (Homo sapiens) (Q13133 whole entry, looked up, the tested form may be a part): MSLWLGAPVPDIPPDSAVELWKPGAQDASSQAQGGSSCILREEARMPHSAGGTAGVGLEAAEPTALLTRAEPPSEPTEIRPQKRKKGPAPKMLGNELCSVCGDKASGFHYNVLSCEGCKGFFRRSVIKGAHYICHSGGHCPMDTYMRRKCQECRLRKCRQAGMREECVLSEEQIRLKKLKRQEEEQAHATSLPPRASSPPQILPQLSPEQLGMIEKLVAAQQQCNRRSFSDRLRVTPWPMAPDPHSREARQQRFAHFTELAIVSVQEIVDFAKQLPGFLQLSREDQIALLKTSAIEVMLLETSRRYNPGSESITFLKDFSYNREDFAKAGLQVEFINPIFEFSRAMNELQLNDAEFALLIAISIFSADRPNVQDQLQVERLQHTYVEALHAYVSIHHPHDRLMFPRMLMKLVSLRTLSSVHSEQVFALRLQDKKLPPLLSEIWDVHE
The nature of data set [3]: Cmax in Swiss CD1 mouse at 1 mg/kg, ip measured upto 7 hrs by LC-MS analysis. The class given is ADME, organism-based. The arrangement: dose 1 mg/kg, route intraperitoneal. Conditions: in vivo.
Data set [4] can be described thus: Tmax in Swiss CD1 mouse at 10 mg/kg, ip measured upto 7 hrs by LC-MS analysis. The data set is classed as ADME, organism-based. The conditions noted are these: in vivo.
For data set [5], the target named is T2, Peroxisome proliferator-activated receptor gamma (Homo sapiens, UniProt P37231).
T2 sequence (P37231 whole entry): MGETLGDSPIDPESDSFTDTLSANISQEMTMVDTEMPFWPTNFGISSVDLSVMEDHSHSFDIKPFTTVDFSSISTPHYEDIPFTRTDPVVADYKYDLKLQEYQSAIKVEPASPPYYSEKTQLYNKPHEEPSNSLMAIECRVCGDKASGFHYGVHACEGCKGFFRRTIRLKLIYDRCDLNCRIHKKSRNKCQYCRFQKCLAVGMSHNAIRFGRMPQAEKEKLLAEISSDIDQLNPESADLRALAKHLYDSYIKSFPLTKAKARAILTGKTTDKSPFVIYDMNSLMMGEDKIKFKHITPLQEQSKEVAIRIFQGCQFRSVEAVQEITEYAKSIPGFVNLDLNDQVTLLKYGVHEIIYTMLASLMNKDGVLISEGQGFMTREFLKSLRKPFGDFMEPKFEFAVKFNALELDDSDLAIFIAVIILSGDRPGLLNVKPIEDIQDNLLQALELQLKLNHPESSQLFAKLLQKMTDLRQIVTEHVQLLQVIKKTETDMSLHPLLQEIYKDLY
Put plainly: Antagonist actvity in sGFP-tagged PPARgamma LBD (unknown origin) assessed as inhibition of rosiglitazone-induced PPARgamma activation incubated for 1 hr in presence of CBP-1 cofactor peptide by HTRF based cofactor recruitment assay. (Time-resolved FRET reads energy transfer from a long-lived donor to a nearby acceptor.)

A short description of data set [6]: AUC (0 to 3 hrs) in Swiss CD1 mouse at 1 mg/kg, ip measured upto 3 hrs by LC-MS analysis. The data set is classed as ADME, organism-based. Also noted: dose 1 mg/kg, time < 3 hr, route intraperitoneal. The conditions noted are these: in vivo.
Data set [7] deals with T3, Retinoic acid receptor RXR-alpha (Homo sapiens) (UniProt P19793).
T3 sequence (whole entry): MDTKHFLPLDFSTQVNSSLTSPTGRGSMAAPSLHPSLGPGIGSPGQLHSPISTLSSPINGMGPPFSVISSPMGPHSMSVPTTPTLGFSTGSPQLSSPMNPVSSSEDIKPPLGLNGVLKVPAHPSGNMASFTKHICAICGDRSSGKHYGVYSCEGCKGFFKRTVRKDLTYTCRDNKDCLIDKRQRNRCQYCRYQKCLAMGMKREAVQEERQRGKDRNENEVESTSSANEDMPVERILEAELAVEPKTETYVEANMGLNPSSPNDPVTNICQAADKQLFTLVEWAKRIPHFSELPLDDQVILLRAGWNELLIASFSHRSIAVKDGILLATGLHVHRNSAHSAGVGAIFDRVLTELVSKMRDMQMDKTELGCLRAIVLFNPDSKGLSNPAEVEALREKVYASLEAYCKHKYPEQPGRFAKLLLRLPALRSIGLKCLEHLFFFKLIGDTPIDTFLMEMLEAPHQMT
Put plainly: Antagonist activity at recombinant human pFA-CMV fused RXRalpha LBD transfected in HEK293T cells assessed as reduction in bexarotene-induced RXRalpha activation at 1 uM incubated for 12 to 14 hrs by dual glo luciferase reporter gene assay. The data set is classed as cell-based. On the technique in general: In a reporter assay the amount or activity of a reporter protein is the signal.

Data set [8] is described as follows: Cmax in Swiss CD1 mouse at 10 mg/kg, ip measured upto 7 hrs by LC-MS analysis. The data set is classed as ADME, organism-based. The arrangement: dose 10 mg/kg, route intraperitoneal. The conditions noted are these: in vivo.
Data set [9] in a line: Metabolic stability in Sprague-Dawley rat liver microsomes assessed as remaining compound at […] incubated for 60 mins. The class given is ADME, Microsome. The conditions noted are these: read-out: Stability. Background: Liver microsomes are vesicles of endoplasmic reticulum, rich in cytochrome P450 enzymes.

The values below come from ChEMBL document CHEMBL4364346, “Structure optimization of a new class of PPARγ antagonists” (Bioorg Med Chem, 2019).

pIC50: −log10 of the molar value. The source made the active and inactive calls. No cut-off for these calls is given here.

Turning to `CCC/C(=C\c1cc(OCc2ccc3nc(C(F)(F)F)cc(OC)c3c2)ccc1OCCN1CCN(C)CC1)C(=O)O`, the result in [1], in data set [2] and in data set [7] was inactive. The results for the Cmax in [3] and in data set [8] were 74 nM and 446 nM, respectively. Further, the time of peak concentration (Tmax) in data set [4] was 0.25 h. Besides, the pIC50 in data set [5] is 5.19. Moreover, the AUC(0-t) at 3 h in [6] amounted to 112 ng·h/mL. The remaining at 1 h in data set [9] turned out to be 81%.

For `CCC/C(=C\c1cc(OCc2ccc3nc(C(F)(F)F)cc(OC)c3c2)ccc1OCC1CCN(C)CC1)C(=O)O`, the result in data set [1], in [2] and in data set [7] was inactive. Also, the values for the Cmax in [3] and in data set [8] were 60 nM and 380 nM, respectively. Moreover, in data set [4], the Tmax turned out to be 2 h. Moreover, in data set [6], the AUC(0-t) at 3 h is 101 ng·h/mL. The remaining at 1 h in data set [9] is 95%.

The term Cmax denotes the peak of the concentration-time curve. As usually defined, the Tmax is the time from dosing to the highest level. Broadly, the pIC50 is −log10 of the IC50, conventionally taken in molar units. For orientation: AUC(0-t) means the area under the concentration-time curve up to a stated or last time point. The low end stands for less exposure, the high end for more exposure.
